# Reference: PMC4933242, “Low or No Inhibitory Potency of the Canonical Galectin Carbohydrate-binding Site by Pectins and Galactomannans*” (The Journal of Biological Chemistry, 2016)
# Where two headings read alike, the source gives them in different places.
# T1: galectin-2 (Homo sapiens, UniProt P05162)
# T1 sequence (P05162 1-132): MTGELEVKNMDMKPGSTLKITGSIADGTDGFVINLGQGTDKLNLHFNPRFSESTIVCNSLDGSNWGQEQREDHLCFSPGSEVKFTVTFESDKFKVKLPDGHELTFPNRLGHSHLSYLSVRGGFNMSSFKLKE
# T2: Gal-4C (Homo sapiens, UniProt P56470)
# T2 construct: Gal-4C
# T2 sequence (P56470 194-323 limits assumed): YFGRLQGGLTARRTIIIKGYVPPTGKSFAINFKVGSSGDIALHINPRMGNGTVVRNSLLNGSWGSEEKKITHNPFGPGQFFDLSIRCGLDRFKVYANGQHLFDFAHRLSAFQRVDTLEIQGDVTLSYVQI
# T3: galectin-8N (Homo sapiens, UniProt O00214)
# T3 construct: the N-terminal CRD of galectin-8 (galectin-8N)
# T3 sequence (O00214 19-152 limits assumed): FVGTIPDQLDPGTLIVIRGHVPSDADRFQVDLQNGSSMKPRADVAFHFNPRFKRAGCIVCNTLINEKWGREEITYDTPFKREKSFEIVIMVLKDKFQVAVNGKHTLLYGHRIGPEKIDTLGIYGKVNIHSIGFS
# T4: Gal-4N (Homo sapiens, UniProt P56470)
# T4 construct: Gal-4N
# T4 sequence (P56470 19-150 limits assumed): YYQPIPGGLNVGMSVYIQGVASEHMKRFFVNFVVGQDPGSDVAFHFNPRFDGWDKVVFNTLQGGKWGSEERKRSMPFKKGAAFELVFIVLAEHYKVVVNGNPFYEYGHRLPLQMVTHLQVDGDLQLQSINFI
# B1: asialofetuin (natural protein, UniProt P12763 19-359, looked up)
# chain: IPLDPVAGYKEPACDDPDTEQAALAAVDYINKHLPRGYKHTLNQIDSVKVWPRRPTGEVYDIEIDTLETTCHVLDPTPLANCSVRQQTQHAVEGDCDIHVLKQDGQFSVLFTKCDSSPDSAEDVRKLCPDCPLLAPLNDSRVVHAVEVALATFNAESNGSYLQLVEISRAQFVPLPVSVSVEFAVAATDCIAKEVVDPTKCNLLAEKQYGFCKGSVIQKALGGEDVRVTCTLFQTQPVIPQPQPDGAEAEAPSAVPDAAGPTPSAAGPPVASVVVGPSVVAVPLPLHRAHYDLRHTFSGVASVESSSGEAFHVGKTPIVGQPSIPGGPVRLCPGRIRYFKI
# notes: asialofetuin (ASF), a glycoprotein; Desialylated fetuin; also called ASF
# What was measured:
# galectin-3 [1] = target: T5, galectin-3 (Homo sapiens, UniProt P17931); assay: Fluorescence anisotropy assay, galectin-3; type: binding; settings: about 1 μM galectin, 0.1 or 0.02 μM probe; NI = no inhibition at highest concentration tested; read-out: Calculated Kd, Gal-3
# T5 sequence (P17931 whole entry): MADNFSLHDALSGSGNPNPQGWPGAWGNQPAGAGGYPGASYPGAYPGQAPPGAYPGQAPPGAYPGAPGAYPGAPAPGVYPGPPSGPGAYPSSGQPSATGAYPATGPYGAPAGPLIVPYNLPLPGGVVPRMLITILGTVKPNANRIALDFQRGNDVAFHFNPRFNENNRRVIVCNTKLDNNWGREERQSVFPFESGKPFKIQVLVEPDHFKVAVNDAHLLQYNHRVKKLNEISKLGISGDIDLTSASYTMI
# Description: (§1) FA was used to analyze interactions of probes and ligands with galectins in solution, as described before ([41][–][44]). A PheraStarFS plate reader, with software PHERAstar Mars version 2.10 R3 (BMG, Offenburg, Germany), was used, and FA of fluorescein-tagged saccharide probes was measured with excitation at 485 nm and emission at 520 nm.
# (§2) The anisotropy (A) is given in units of mA, where the theoretical maximum is 400, and the value for free fluorescein typically 23. All conditions were measured in at least two duplicate wells.
# (§3) In this study, the effect of inhibitors of the saccharide probe/galectin interaction was tested in two ways. In the first, a fixed low concentration of fluorescein-tagged probe (0.1 μM) and galectin were mixed with a range of concentrations of inhibitor. An optimal probe was chosen for each galectin to permit use of as low as possible concentration of galectin, while still achieving a sufficient rise in anisotropy for a reliable measuring range ([42][–][44]). […] With structurally defined inhibitors (pure synthetic galacto-oligosaccharides, small galactomannans, and reference ligands) the molecular mass, molar concentrations, and number of binding sites (in this case one binding site per ligand) were known and their dissociation constants (Kd) could therefore be directly calculated, using the data from the FA assay as described in Sörme et al. ([41]). […] Even if the molar concentration of the inhibitor is not known, the anisotropy value at a given condition permits calculation of the molar concentration of free galectin, as described below, and from this what fraction of the galectin is bound by a given mass per volume concentration of inhibitor. From this, the ratio of the molar concentration of the free inhibitor binding sites to their Kd value can be calculated, even if the FA assay cannot distinguish between the case when this is due to a few high affinity binding sites in the polysaccharide fraction or many of low affinity.
# galectin-9N = target: T6, galectin-9N (Homo sapiens, UniProt O00182); assay: Fluorescence anisotropy assay, galectin-9N; type: binding; settings: about 1 μM galectin, 0.1 or 0.02 μM probe; NI = no inhibition at highest concentration tested; read-out: Calculated Kd, Gal-9N
# T6 construct: the N-terminal CRD of galectin-9 (galectin-9N)
# T6 sequence (O00182 17-148 limits assumed): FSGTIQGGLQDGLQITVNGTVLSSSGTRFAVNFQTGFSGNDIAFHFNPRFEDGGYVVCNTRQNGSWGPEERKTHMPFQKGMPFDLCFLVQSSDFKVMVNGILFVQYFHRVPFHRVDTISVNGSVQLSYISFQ
# Description: as §1, §2, §3
# galectin-1 = galectin-1 (Homo sapiens, UniProt P09382); assay: Fluorescence anisotropy assay, inhibition of probe binding to galectin-1; settings: for Kd: about 1 μM galectin, 0.1 or 0.02 μM probe, 4 mM β-mercaptoethanol, NI = no inhibition at highest concentration tested, read-out: Calculated Kd, Gal-1
# Sequence of galectin-1 (P09382 whole entry, species assumed): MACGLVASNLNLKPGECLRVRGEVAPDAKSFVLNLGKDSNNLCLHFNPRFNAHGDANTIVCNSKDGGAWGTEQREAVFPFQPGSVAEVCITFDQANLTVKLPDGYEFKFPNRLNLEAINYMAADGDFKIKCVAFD
# Description: as §1, §2, §3
# Gal-3 R186S = Gal-3 R186S (Homo sapiens, UniProt P17931, R186S); assay: Fluorescence anisotropy assay, galectin-3 R186S mutant; type: binding; settings: about 1 μM galectin, 0.1 or 0.02 μM probe; read-out: Calculated Kd, Gal-3 R186S
# Sequence of Gal-3 R186S (P17931 whole entry R186S): as the sequence (P17931 whole entry) above, with R186S counted along it
# Description: as §1, §2
# (§4) In this study, the effect of inhibitors of the saccharide probe/galectin interaction was tested in two ways. […] With structurally defined inhibitors (pure synthetic galacto-oligosaccharides, small galactomannans, and reference ligands) the molecular mass, molar concentrations, and number of binding sites (in this case one binding site per ligand) were known and their dissociation constants (Kd) could therefore be directly calculated, using the data from the FA assay as described in Sörme et al. ([41]). […] From this, the ratio of the molar concentration of the free inhibitor binding sites to their Kd value can be calculated, even if the FA assay cannot distinguish between the case when this is due to a few high affinity binding sites in the polysaccharide fraction or many of low affinity.
# galectin-2 = target: T1, galectin-2; assay: Fluorescence anisotropy assay, galectin-2; type: binding; settings: about 1 μM galectin, 0.1 or 0.02 μM probe; NI = no inhibition at highest concentration tested; read-out: Calculated Kd, Gal-2
# Description: as §1, §2, §4
# Gal-4C = target: T2, Gal-4C; assay: Fluorescence anisotropy assay, galectin-4C; type: binding; settings: about 1 μM galectin, 0.1 or 0.02 μM probe; NI = no inhibition at highest concentration tested; read-out: Calculated Kd, Gal-4C
# Description: as §1, §2, §3
# galectin-8N = target: T3, galectin-8N; assay: Fluorescence anisotropy assay, galectin-8N; type: binding; settings: about 1 μM galectin, 0.1 or 0.02 μM probe; read-out: Calculated Kd, Gal-8N
# Description: as §1, §2, §4
# Gal-9C = target: T7, Gal-9C (Homo sapiens, UniProt O00182); assay: Fluorescence anisotropy assay, galectin-9C; type: binding; settings: about 1 μM galectin, 0.1 or 0.02 μM probe; read-out: Calculated Kd, Gal-9C
# T7 construct: Gal-9C
# T7 sequence (O00182 227-355 limits assumed): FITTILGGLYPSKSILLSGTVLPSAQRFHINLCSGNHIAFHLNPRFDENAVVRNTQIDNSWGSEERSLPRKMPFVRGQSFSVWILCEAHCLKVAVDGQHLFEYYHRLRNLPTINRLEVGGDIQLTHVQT
# Description: as §1, §2, §3
# Gal-4N = target: T4, Gal-4N; assay: Fluorescence anisotropy assay, galectin-4N; type: binding; settings: about 1 μM galectin, 0.1 or 0.02 μM probe; NI = no inhibition at highest concentration tested; read-out: Calculated Kd, Gal-4N
# Description: as §1, §2, §4
# galectin-3 [2] = target: T5, galectin-3; settings: given as example of low affinity; no reference given; read-out: Kd for galectin-3 canonical carbohydrate-binding site; cited from earlier work
# galectin-1 wild type = target: T8, galectin-1 wild type (UniProt P09382 1-135); assay: fluorescence polarisation; fluorescence anisotropy competition in solution; galectin-1 WT 0.5 uM, tdga saccharide probe 0.1 uM, increasing concentrations of ASF in the presence of the peptide Anginex, with or without beta-mercaptoethanol; settings: both partners purified
# T8 construct: galectin-1, wild type; also called Gal-1; galectin-1 WT; source: called purified galectins in the discussion
# T8 sequence (P09382 whole entry): as the sequence (P09382 whole entry, species assumed) above
Molecule,Kd (galectin-3 [1]),Kd (galectin-9N),Kd (galectin-1),further results
OC[C@H]1O[C@@H](O[C@H]2[C@@H](O)[C@@H](CO)OC(O)[C@@H]2O)[C@H](O)[C@@H](O)[C@H]1O (stereo partly shown) [Galβ1–3Gal],180 µM,150 µM,,
"CO[C@@H]1O[C@H](CO)[C@@H](O[C@@H]2O[C@H](CO)[C@H](O)[C@H](O)[C@H]2O)[C@H](O)[C@H]1NC(C)=O [Methyl β-LacNAc, reference compound]",52 µM,,84 µM,Kd (Gal-3 R186S): 1200 µM
OC[C@H]1O[C@@H](O[C@@H]2[C@H](O)[C@@H](O)C(O)O[C@@H]2CO)[C@H](O)[C@@H](O)[C@H]1O (stereo partly shown) [Galβ1–4Gal],,1200 µM,,
"OC[C@H]1O[C@H](OC[C@H]2O[C@@H](O[C@H]3[C@H](O)[C@H](O)[C@H](O[C@H]4[C@H](O)[C@H](O)[C@H](O[C@H]5[C@H](O)[C@H](O)C(O)O[C@@H]5CO)O[C@@H]4CO)O[C@@H]3CO[C@H]3O[C@H](CO)[C@H](O)[C@H](O)[C@H]3O)[C@@H](O)[C@@H](O)[C@@H]2O[C@@H]2O[C@H](CO)[C@@H](O)[C@H](O)[C@@H]2O)[C@H](O)[C@@H](O)[C@H]1O (stereo partly drawn) [6^3,6^4-α-Galactosyl-mannopentaose, 6^3,6^4-α-D-galactosyl-mannopentaose]",1500 µM,980 µM,4300 µM,Kd (galectin-2): 8300 µM; Kd (Gal-4C): > 10000 µM; Kd (galectin-8N): 2500 µM; Kd (Gal-9C): 2000 µM
"OC1OC[C@H](O)[C@H](O)[C@H]1O (mixture of isomers) [L-Arabinose, L-arabinose, reference compound]",,94000 µM,,
"COC1OC(CO)C(O)C(O)C1O (stereo not drawn) [Methyl β-Gal, reference compound]",,4000 µM,,Kd (Gal-9C): 8600 µM
"OC[C@H]1O[C@H](OC[C@H]2OC(O)[C@@H](O)[C@@H](O)[C@@H]2O[C@@H]2O[C@H](CO)[C@@H](O[C@@H]3O[C@H](CO)[C@@H](O)[C@H](O)[C@@H]3O)[C@H](O)[C@@H]2O)[C@H](O)[C@@H](O)[C@H]1O (stereo partly drawn) [6^1-α-Galactosyl-mannotriose, 6^1-α-D-galactosyl-mannotriose]",3600 µM,2400 µM,,Kd (galectin-2): > 10000 µM; Kd (Gal-4C): > 10000 µM; Kd (Gal-4N): > 10000 µM; Kd (galectin-8N): 7400 µM
"OC[C@H]1O[C@@H](OC[C@H]2O[C@@H](OC[C@H]3OC(O)[C@H](O)[C@@H](O)[C@H]3O)[C@H](O)[C@@H](O[C@@H]3O[C@H](CO)[C@H](O)[C@H](O)[C@H]3O)[C@H]2O)[C@H](O)[C@@H](O)[C@H]1O (stereo partly shown) [Branched Galβ1–6(Galβ1–3)Galβ1–6Gal, Galβ1–6(Galβ1–3)Galβ1–6Gal]",80 µM,51 µM,800 µM,
OC[C@H]1O[C@@H](OC[C@H]2OC(O)[C@H](O)[C@@H](O)[C@H]2O)[C@H](O)[C@@H](O)[C@H]1O (stereo partly shown) [Galβ1–6Gal],,> 2000 µM,> 2000 µM,
OC[C@H]1O[C@@H](O[C@H]2[C@@H](O)[C@@H](CO)O[C@@H](OC[C@H]3OC(O)[C@H](O)[C@@H](O)[C@H]3O)[C@@H]2O)[C@H](O)[C@@H](O)[C@H]1O (stereo partly shown) [Galβ1–3Galβ1–6Gal],110 µM,68 µM,1200 µM,
"OC[C@H]1O[C@@H](OC[C@H]2OC(O)[C@H](O)[C@@H](O[C@@H]3O[C@H](CO)[C@H](O)[C@H](O)[C@H]3O)[C@H]2O)[C@H](O)[C@@H](O)[C@H]1O (stereo partly shown) [Branched Galβ1–6(Galβ1–3)Gal, Galβ1–6(Galβ1–3)Gal]",130 µM,100 µM,1300 µM,
Anginex [reference compound],,,,"influence on galectin-1 interaction with Davanat® (galectin-1; galectin-1 0.5 μM, tdga probe 0.1 μM, Fig. 7E): no influence; potentiation of the inhibition of galectin-1 by ASF (factor) (galectin-1; with or without β-mercaptoethanol, Fig. 7F): about 500"
"O=C[C@H](O)[C@@H](O)[C@@H](O)[C@H](O)CO [Gal, galactose]",,,,Kd (galectin-3 [2]): ~5000 µM
"CO[C@@H]1O[C@H](CO)[C@@H](O[C@@H]2O[C@H](CO)[C@H](O)[C@H](O)[C@H]2O)[C@H](O)[C@H]1O [Methyl β-Lac, reference compound]",110 µM,,170 µM,Kd (Gal-3 R186S): 290 µM; Kd (Gal-4C): 2900 µM; Kd (Gal-4N): 2600 µM; Kd (Gal-9C): 190 µM
OC[C@H]1O[C@@H](OC[C@H]2O[C@@H](OC[C@H]3OC(O)[C@H](O)[C@@H](O)[C@H]3O)[C@H](O)[C@@H](O)[C@H]2O)[C@H](O)[C@@H](O)[C@H]1O (stereo partly shown) [Galβ1–6Galβ1–6Gal],> 2000 µM,> 2000 µM,> 2000 µM,
B1,,,,fold potentiation by Anginex of the inhibition of galectin-1/probe binding by ASF (galectin-1 wild type): ~500 fold
